The values that follow come from US9133181B2, “Substituted 6-(4-hydroxy-phenyl)-1H-pyrazolo[3,4-b]pyridine derivatives as kinase inhibitors” (SANOFI, priority 2012, dated 2015).

Molecules are shown by their SMILES.

T1 sequence (P05771 1-673 isoform P05771-2): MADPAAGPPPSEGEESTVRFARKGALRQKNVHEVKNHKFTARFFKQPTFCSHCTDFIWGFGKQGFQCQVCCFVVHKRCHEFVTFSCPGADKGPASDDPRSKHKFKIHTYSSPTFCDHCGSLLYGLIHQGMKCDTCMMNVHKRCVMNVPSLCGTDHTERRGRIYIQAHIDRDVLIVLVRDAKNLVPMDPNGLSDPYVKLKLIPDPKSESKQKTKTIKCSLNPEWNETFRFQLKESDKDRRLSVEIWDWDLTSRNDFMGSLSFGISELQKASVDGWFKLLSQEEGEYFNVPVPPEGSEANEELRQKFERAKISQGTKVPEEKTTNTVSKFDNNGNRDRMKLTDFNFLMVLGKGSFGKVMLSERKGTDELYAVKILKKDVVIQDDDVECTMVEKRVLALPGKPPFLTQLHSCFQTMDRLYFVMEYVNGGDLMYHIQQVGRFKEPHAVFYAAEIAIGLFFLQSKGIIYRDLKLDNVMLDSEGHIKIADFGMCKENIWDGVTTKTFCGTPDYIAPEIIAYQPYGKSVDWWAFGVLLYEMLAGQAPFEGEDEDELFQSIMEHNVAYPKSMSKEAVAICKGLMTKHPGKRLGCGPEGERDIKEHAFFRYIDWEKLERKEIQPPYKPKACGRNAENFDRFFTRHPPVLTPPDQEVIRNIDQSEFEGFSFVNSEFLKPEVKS

This assay has as its target T1, human full-length recombinant PKC βII (Homo sapiens, UniProt P05771).
T1 construct: Active human full-length recombinant PKC βII; purchased Invitrogen GmbH, Darmstadt, Germany
Description: Determination of PKC βII inhibition (Caliper mobility shift kinase assay). It counts as biochemical. The settings on record: final compound concentration 1.14 μM (±0.15 μM); 60 min incubation at 32° C. As for the experimental part:
Determination of PKC βII Inhibition
PKC βII inhibition was determined according to the following protocol:
Active human full-length recombinant PKC βII and the peptide substrate, Fluorescein-RFARKGSLRQKNV, were purchased from Invitrogen GmbH, Darmstadt, Germany. Adenosine-5′-triphosphate (ATP), bovine serum albumine (BSA), dimethylsulphoxide (DMSO), 4-(2-hydroxyethyl)piperazine-1-ethanesulfonic acid (Hepes), Triton X-100, 1,2-Dioleoyl-sn-glycerol (DAG), L-α-Phosphatidyl-L-serine (PS), calcium chloride (CaCl2), and Pluronic F-68 were purchased from Sigma-Aldrich, Munich, Germany. Magnesium chloride, 1 M sodium hydroxide solution, 1M hydrochloric acid solution and EDTA were obtained from Merck Biosciences, Darmstadt, Germany.
Test compounds were diluted to three times the test concentration in buffer 1 (30 mM Hepes-NaOH, pH 7.4, 0.01% Pluronic F-68 and 3% (v/v) DMSO). The […] enzyme was diluted to a concentration of 30 ng/ml in buffer 2 (30 mM Hepes-NaOH, pH 7.4, 15 mM MgCl2, 150 μM CaCl2, 150 μg/ml PS, 60 μg/ml DAG, and 0.045% (w/v) Triton X-100). The peptide substrate and ATP were diluted to concentrations of 3 μM and 120 μM, respectively, in buffer 2. Two μl of the compound solution were mixed with 2 μl of the diluted enzyme in a 384-well small volume microtiter plate (Greiner, Bio-One, Frickenhausen, Germany), and the kinase reaction was initiated by addition of 2 μl of the solution containing peptide substrate and ATP. After 60 min incubation at 32° C., the reaction was stopped by addition of 20 μl of a solution containing 130 mM Hepes-NaOH, pH 7.4, 0.0195% (v/v) Brij-35, 6.5 mM EDTA, 0.13% chip coating reagent 3 (Caliper Lifescience Inc, Hopkinton, Mass.) and 6.5% (v/v) DMSO. Phosphorylation of the substrate peptide was then detected on a Caliper 3000 instrument essentially as described by Pommereau et al (J. Biomol. Screening 2004, 9(5), 409-416). Separation conditions were as follows: Pressure −0.8 psi, upstream voltage −3000 V, downstream voltage −800 V. Positive controls (buffer 1 instead of compound) and negative controls (buffer 1 instead of compound and buffer 2 instead of kinase solution) were run in parallel on each plate. Fractional turnover (R) was determined as the height of the peak of the phosphorylated peptide product divided by the sum of the unphosphorylated substrate and phosphorylated product peak heights. Percent-inhibition values for the test compounds were determined using the formula % Inhibition=100*(1−(Rcompound−Rnegative control)/(Rpositive control−Rnegative control).
In the following table % inhibition values observed with example compounds at a final concentration of 1.14 μM (±0.15 μM) are listed: […]
For orientation: inhibition means the drop in the measured response relative to a control, in per cent. For `Cc1n[nH]c2nc(-c3ccc(O)cc3)cc(CN3CC(C)(C)N(C)CC3(C)C)c12` [Example 84, 4-[3-Methyl-4-(2,2,4,5,5-pentamethyl-piperazin-1-ylmethyl)-1H-pyrazolo[3,4-b]pyridin-6-yl]-phenol], the inhibition at 1.14 µM worked out at 98%.

In the case of `Cc1n[nH]c2nc(-c3ccc(O)cc3F)cc(CN3CC(C)(C)N(C(=O)C4CCOC4)CC3(C)C)c12` (stereo not shown) [Example 77, {4-[6-(2-Fluoro-4-hydroxy-phenyl)-3-methyl-1H-pyrazolo[3,4-b]pyridin-4-ylmethyl]-2,2,5,5-tetramethyl-piperazin-1-yl}-(tetrahydro-furan-3-yl)-methanone], the inhibition at 1.14 µM was determined as 98%.

Consider `Cc1n[nH]c2nc(-c3ccc(O)cc3F)cc(CN3CC(C)(C)NCC3C(C)C)c12` (stereo not shown) [Example 37, 3-Fluoro-4-[4-(2-isopropyl-5,5-dimethyl-piperazin-1-ylmethyl)-3-methyl-1H pyrazolo[3,4-b]pyridin-6-yl]-phenol], for which the inhibition at 1.14 µM is 94%.

For `Cc1n[nH]c2nc(-c3ccc(O)cc3F)cc(CN3CC(C)(C)NC[C@@H]3C(C)C)c12` [Example 133, 3-Fluoro-4-[4-((S)-2-isopropyl-5,5-dimethyl-piperazin-1-ylmethyl)-3-methyl-1H-pyrazolo[3,4-b]pyridin-6-yl]-phenol], the inhibition at 1.14 µM came to 103%.

As for `Cc1n[nH]c2nc(-c3ccc(O)cc3F)cc(CN3C[C@H](C)NCC3(C)C)c12` [Example 115, 3-Fluoro-4-[3-methyl-4-((S)-2,2,5-trimethyl-piperazin-1-ylmethyl)-1H-pyrazolo[3,4-b]pyridin-6-yl]-phenol], the inhibition at 1.14 µM was determined as 94%.

Turning to `CC[C@H]1CNC(C)(C)CN1Cc1cc(-c2ccc(O)cc2)nc2[nH]nc(C)c12` [Example 145, 4-[4-((S)-2-Ethyl-5,5-dimethyl-piperazin-1-ylmethyl)-3-methyl-1H-pyrazolo[3,4-b]pyridin-6-yl]-phenol], the inhibition at 1.14 µM worked out at 95%.

As for `CC[C@@H]1CN(Cc2cc(-c3ccc(O)cc3F)nc3[nH]nc(C)c23)[C@@H](C)CN1` [Example 30, 4-[4-((2S,5R)-5-Ethyl-2-methyl-piperazin-1-ylmethyl)-3-methyl-1H-pyrazolo[3,4-b]pyridin-6-yl]-3-fluoro-phenol], the inhibition at 1.14 µM was 97%.

Consider `Cc1n[nH]c2nc(-c3ccc(O)cc3F)cc(CN3C[C@@H](C)NCC34CCCC4)c12` [Example 128, 3-Fluoro-4-[3-methyl-4-((R)-8-methyl-6,9-diaza-spiro[4.5]dec-6-ylmethyl)-1H-pyrazolo[3,4-b]pyridin-6-yl]-phenol], for which the inhibition at 1.14 µM came to 71%.

Turning to `Cc1n[nH]c2nc(-c3ccc(O)cc3F)cc(CN3CCNCC3c3cccc(F)c3)c12` (stereo not shown) [Example 6, 3-Fluoro-4-{4-[2-(3-fluoro-phenyl)-piperazin-1-ylmethyl]-3-methyl-1H-pyrazolo[3,4-b]pyridin-6-yl}-phenol], the inhibition at 1.14 µM was 91%.

With `Cc1n[nH]c2nc(-c3ccc(O)cc3F)cc(CN3CC(C)(C)N(CC4CCOCC4)CC3(C)C)c12` [Example 70, 3-Fluoro-4-{3-methyl-4-[2,2,5,5-tetramethyl-4-(tetrahydro-pyran-4-ylmethyl)-piperazin-1-ylmethyl]-1H-pyrazolo[3,4-b]pyridin-6-yl}-phenol], the inhibition at 1.14 µM worked out at 96%.

Consider `Cc1n[nH]c2nc(-c3ccc(O)cc3F)cc(CN3CCNC[C@@H]3c3ccc(C(F)(F)F)cc3)c12` [Example 103, 3-Fluoro-4-{3-methyl-4-[(S)-2-(4-trifluoromethyl-phenyl)-piperazin-1-ylmethyl]-1H-pyrazolo[3,4-b]pyridin-6-yl}-phenol], for which the inhibition at 1.14 µM worked out at 53%.

For `Cc1n[nH]c2nc(-c3ccc(O)cc3F)cc(CN3CC(C)(C)NC[C@@]3(C)C3CC3)c12` [Example 126, 4-[4-((R)-2-Cyclopropyl-2,5,5-trimethyl-piperazin-1-ylmethyl)-3-methyl-1H-pyrazolo[3,4-b]pyridin-6-yl]-3-fluoro-phenol], the inhibition at 1.14 µM came out at 91%.

For the compound `CC[C@@]1(C)CN(Cc2cc(-c3ccc(O)cc3F)nc3[nH]nc(C)c23)C(C)(C)CN1` [Example 136, 4-[4-((S)-5-Ethyl-2,2,5-trimethyl-piperazin-1-ylmethyl)-3-methyl-1H-pyrazolo[3,4-b]pyridin-6-yl]-3-fluoro-phenol], the inhibition at 1.14 µM amounted to 104%.

`CCC1(CC)CN(Cc2cc(-c3ccc(O)c(F)c3)nc3[nH]nc(C)c23)C(C)(C)CN1` [Example 58, 4-[4-(5,5-Diethyl-2,2-dimethyl-piperazin-1-ylmethyl)-3-methyl-1H-pyrazolo[3,4-b]pyridin-6-yl]-2-fluoro-phenol]: the inhibition at 1.14 µM was 91%.

`Cc1n[nH]c2nc(-c3ccc(O)cc3F)cc(CN3CCCNC(C)C3)c12` (stereo not shown) [Example 25, 3-Fluoro-4-[3-methyl-4-(3-methyl-[1,4]diazepan-1-ylmethyl)-1H-pyrazolo[3,4-b]pyridin-6-yl]-phenol]: the inhibition at 1.14 µM came to 102%.

Turning to `Cc1n[nH]c2nc(-c3ccc(O)cc3F)cc(CN3CC(C)(C)N(CCC(F)(F)F)CC3(C)C)c12` [Example 65, 3-Fluoro-4-{3-methyl-4-[2,2,5,5-tetramethyl-4-(3,3,3-trifluoro-propyl)-piperazin-1-ylmethyl]-1H-pyrazolo[3,4-b]pyridin-6-yl}-phenol], the inhibition at 1.14 µM was determined as 88%.

Turning to `Cc1n[nH]c2nc(-c3ccc(O)cc3F)cc(CN3CCNC[C@@H]3C(F)(F)F)c12` [Example 107, 3-Fluoro-4-[3-methyl-4-((R)-2-trifluoromethyl-piperazin-1-ylmethyl)-1H-pyrazolo[3,4-b]pyridin-6-yl]-phenol], the inhibition at 1.14 µM came out at 101%.

In the case of `Cc1n[nH]c2nc(-c3ccc(O)cc3F)cc(CN3CCNCC3(C)c3ccccc3)c12` (stereo not shown) [Example 12, 3-Fluoro-4-[3-methyl-4-(2-methyl-2-phenyl-piperazin-1-ylmethyl)-1H-pyrazolo[3,4-b]pyridin-6-yl]-phenol], the inhibition at 1.14 µM came to 94%.

With `Cc1n[nH]c2nc(-c3ccc(O)cc3F)cc(CN3CCNC[C@@H]3c3ccccc3)c12` [Example 109, 3-Fluoro-4-[3-methyl-4-((S)-2-phenyl-piperazin-1-ylmethyl)-1H-pyrazolo[3,4-b]pyridin-6-yl]-phenol], the inhibition at 1.14 µM is 91%.

Turning to `Cc1n[nH]c2nc(-c3ccc(O)cc3F)cc(CN3CCNCC3)c12` [Example 13, 3-Fluoro-4-(3-methyl-4-piperazin-1-ylmethyl-1H-pyrazolo[3,4-b]pyridin-6-yl)-phenol], the inhibition at 1.14 µM is 81%.

For the compound `Cc1n[nH]c2nc(-c3ccc(O)cc3F)cc(C(C)N3CCNCC3)c12` (stereo not shown) [Example 97, 3-Fluoro-4-[3-methyl-4-(1-piperazin-1-yl-ethyl)-1H-pyrazolo[3,4-b]pyridin-6-yl]-phenol], the inhibition at 1.14 µM was found to be 96%.

For the compound `COC(=O)CN1CC(C)(C)N(Cc2cc(-c3ccc(O)cc3F)nc3[nH]nc(C)c23)CC1(C)C` [Example 74, {4-[6-(2-Fluoro-4-hydroxy-phenyl)-3-methyl-1H-pyrazolo[3,4-b]pyridin-4-ylmethyl]-2,2,5,5-tetramethyl-piperazin-1-yl}-acetic acid methyl ester], the inhibition at 1.14 µM was determined as 95%.

Regarding `Cc1n[nH]c2nc(-c3ccc(O)cc3F)cc(CN3CCNCC3c3cccc(C(F)(F)F)c3)c12` (stereo not shown) [Example 8, 3-Fluoro-4-{3-methyl-4-[2-(3-trifluoromethyl-phenyl)-piperazin-1-ylmethyl]-1H-pyrazolo[3,4-b]pyridin-6-yl}-phenol], the inhibition at 1.14 µM is 92%.

For `COCC(=O)NC1(C)CCCN(Cc2cc(-c3ccc(O)cc3F)nc3[nH]nc(C)c23)C1` (stereo not shown) [Example 81, N-{1-[6-(2-Fluoro-4-hydroxy-phenyl)-3-methyl-1H-pyrazolo[3,4-b]pyridin-4-ylmethyl]-3-methyl-piperidin-3-yl}-2-methoxy-acetamide], the inhibition at 1.14 µM was 97%.

For the compound `Cc1n[nH]c2nc(-c3ccc(O)cc3F)cc(CN3CCNC[C@@H]3c3cccc(F)c3)c12` [Example 119, 3-Fluoro-4-{4-[(S)-2-(3-fluoro-phenyl)-piperazin-1-ylmethyl]-3-methyl-1H-pyrazolo[3,4-b]pyridin-6-yl}-phenol], the inhibition at 1.14 µM stood at 86%.
